What all share (type): cell-based, Trypanosoma cruzi
For test [1], the target named is trypomastigote forms of T. cruzi (Dm28c-Luc). The test is described as follows: Trypanocidal activity against trypomastigotes (luciferase luminescence, 24 h). Conditions: for Trypomastigotes SI: SI = CC50 of VERO cells/IC50 of trypomastigotes; for increase of activity compared with 1g (times): trypomastigotes. The protocol:
(§1) A drug screen was carried out with Trypanosoma cruzi clone Dm28c genetically modified to express luciferase (Dm28c-luc), kindly provided by Dr. Cristina Henriques. The genetically modified T. cruzi clone Dm28c (Dm28c-Luc) has the firefly luciferase gene integrated into the genome, stably expressing the luminescent enzyme. The bioluminescent signal, proportional to the number of parasites, is produced by adding a D-luciferin substrate. Trypomastigotes were harvested from supernatants of VERO cell cultures, infected at a ratio of 10:1 parasite/host cells, 4 days post-infection (4 dpi). Parasites were used for phenotypic drug screening procedures. Luminescent parasites are a reliable and sensitive tool that allows precise quantification of parasite load. The use of genetically modified organisms was approved under license CQB 105/99.
All triazole analogs were analyzed for their biological activity against trypomastigote and intracellular amastigote forms of T. cruzi (Dm28c-Luc). Trypomastigotes (1.0 × 10^6 parasites/well) were incubated for 24 h at 37 °C with triazole derivatives and Bz at concentrations ranging from 0.04 to 100 µM. Luciferin (300 µg/mL), a luciferase substrate, was added to parasite suspensions to evaluate trypomastigotes viability. The luminescent signal was measured using a Glomax microplate reader. A maximal DMSO concentration (0.1%) was used as the negative control. The inhibitory concentration 50 (IC50) and 90 (IC90) against T. cruzi, which reduces the number of parasites by 50% and 90%, respectively, was calculated using linear regression. The selectivity index (SI), a ratio that measures the window between toxicity in mammalian cells and anti-T. cruzi activity (SI = CC50/IC50), was also determined.

Test [2] concerns intracellular amastigote forms of T. cruzi (Dm28c-Luc). Briefly: Activity against intracellular amastigotes in infected VERO cells (72 h). Conditions: for Intracellular Amastigotes SI: SI = CC50 of VERO cells/IC50 of intracellular amastigotes; for IC50 / IC90: infected VERO cells, 72 h, mean ± SD; for IC50: read-out: Trypanocidal Activity Intracellular Amastigotes IC50; for IC90: read-out: Trypanocidal Activity Intracellular Amastigotes IC90. How it is done:
as §1
Activity against intracellular amastigotes was determined in cultures of VERO cells infected by T. cruzi (24 h), as previously described. Briefly, infected cultures were treated for 72 h at 37 °C with different concentrations of triazole derivatives (0.04–100 µM). Then, the culture supernatant was removed, and the viability of the intracellular parasites was evaluated after adding luciferin (300 µg/mL) to the cell monolayer followed by reading using the microplate reader. Anti-T. cruzi activity (IC50 and IC90) and SI values were determined. All experimental assays were performed at least 3 times in duplicate.

Test [3] concerns T. cruzi Dm28c-Luc in 3D cardiac spheroids. The test is described as follows: Drug efficacy in T. cruzi-infected 3D cardiac spheroids. Particulars: 72 h, 15 to 30 times the IC50, 1f maximum 50 µM. How it is done: Primary heart muscle cell cultures were obtained from fetuses of female Swiss Webster mice, as previously described. After heart removal and ventricle fragmentation, tissue fragments were dissociated in a trypsin and collagenase type II (Worthington Biochemical Corporation, Lakewood, USA) dissociation solution. For two-dimensional (2D) cultures, the isolated cardiac cells were seeded at a density of 5 × 10^4 cells/well in gelatin (0.1%)-coated 96-well white culture plates. Three-dimensional (3D) cardiac spheroids were obtained after seeding isolated heart muscle cells at a density of 2.5 × 10^4 cells/well in an agarose (1%)-coated 96-well U-bottom plate, as described in [35]. Heart muscle cells cultures were cultivated in Dulbecco’s modified Eagle medium (DMEM) supplemented with 7% FBS, 2.5 mM CaCl2, 2% embryo extract, and 1 mM L-glutamin and maintained at 37 °C in a humidified atmosphere of 5% CO2. All procedures with animals were approved by the Animal Care and Use Committee at the Oswaldo Cruz Institute (license L-017/2022).
A three-dimensional cardiac model was applied as a cell culture platform to test the efficacy of promising candidates. […] Microtissues were also incubated with DMSO (0.1%) and Bz (100 µM) as negative and positive controls, respectively. After luciferin addition (300 µg/mL), the luminescence was measured, and the data were expressed as arbitrary luminescence units (ALU).

The subject of test [4] is T. cruzi (Dm28c-Luc)-infected VERO cells. Briefly: Short-term washout assay (3 days treatment, 3 days without compound). The protocol: A washout assay was performed to evaluate the capacity of the promising candidates to eliminate all parasites. Thus, VERO cells, seeded in 96-well plates at a density of 1.5 × 10^4 cells/well, were infected with T. cruzi (Dm28c-Luc) at a 10:1 parasite–host cell ratio (24 h). Two treatment schedules were performed: 3 days with 30, 50, and 100 µM concentrations and 10 days with 30 and 60 times the IC50 concentrations. After treatment, the cultures were washed with PBS and kept for the same period in RPMI 1640 medium supplemented with 10% FBS without compound pressure. The culture medium was changed every 3 or 4 days during the time course, and the supernatant was harvested for luminescence reading after luciferin (300 µg/mL) addition. At the endpoint, the monolayers were also evaluated for parasite load. The luminescent signal was read using a Glomax reader. Bz (100 µM) and DMSO (≤1%) were used as positive and negative controls, respectively.

Test [5] deals with intracellular amastigote of T. cruzi Dm28c-Luc. The test is described as follows: Drug combination assay with Bz (isobologram). Conditions: for xΣFICI (average of the sums of fractional inhibitory concentration index): combination with Bz, six ratios, additive xΣFICI > 0.5–1; for interaction with Bz: isobologram, intracellular amastigote. How it is done:
The combination of promising candidates and Bz was performed using an isobologram method. Initial concentrations were determined by ensuring that IC50 concentrations of monotherapy compounds remained close to half in serial dilutions (1:3–6 concentrations). Solutions at the initial concentration of each compound were prepared and then mixed in proportions of 5:0, 4:1, 3:2, 2:3, 1:4, and 0:5 (v/v) of promising compounds and Bz, respectively. The anti-T. cruzi activity for the serial dilutions (1:3) of the ratios was then analyzed, as previously described. The IC50 values for each combination were used to determine the fractional inhibitory concentration index (FICI); thus, FICI(A) = IC50(A) in combination/IC50(A) alone and FICI(B) = IC50(B) in combination/IC50(B) alone. In addition, the sum of the FICIs for each proportion (∑FICI = FICI(A) + FICI(B)) and the average of the sums for the FICIs (xΣFICI) were calculated. The FICI values were plotted on an isobologram graph. The xΣFICI was applied as a classification criterion for interactions: as synergistic xΣFICI ≤ 0.5, additive xΣFICI > 0.5–1, without interaction xΣFICI > 1–4, and antagonistic for xΣFICI > 4.

Setting [6] is: Trypanosoma cruzi, Dm28c-Luc, 24 h, mean ± SD.
Where [7] appears, read: Trypanosoma cruzi, Dm28c-Luc, 24 h, mean ± SD, read-out: Trypanocidal Activity Trypomastigotes IC50.
Where [8] appears, read: Trypanosoma cruzi, Dm28c-Luc, 24 h, read-out: pIC50 against trypomastigotes (converted).

Entries after “also recorded” stand apart in the source; their conditions may differ. Like-named read-outs stand apart in the source and are kept apart here.

As usually defined, the IC90 is the concentration needed for an effect of 90%. For “4-Phenyl-1-(m-tolyl)-1H-1,2,3-triazole [Triazole 1f]”, the pIC50 against trypomastigotes in test [1] (Dm28c-Luc, 24 h) is listed as 5.91. The compound further displayed an IC90 in test [1] (Dm28c-Luc, 24 h, mean ± SD) of 3.68 ± 0.6 µM. The IC50 in test [1] (Dm28c-Luc, 24 h, mean ± SD, read-out: Trypanocidal Activity Trypomastigotes IC50) was found to be 1.23 ± 0.24 µM. In test [1], the “Trypomastigotes SI” value turned out to be 70.5 and the “increase of activity compared with 1g (times)” value came out at 1.8 times. For the same compound, in test [2], the “Intracellular Amastigotes SI” value worked out at 24.8, the IC50 stood at 3.5 ± 0.39 µM and the IC90 stood at 30.4 ± 0.4 µM. Further, the “parasite load in 3D cardiac microtissue (luminescence)” value (shortened to “parasite load … (luminescence)”) in test [3] is “significantly inhibited the viability of the parasites; also recorded: significantly reduce the parasite load”. The “effect on parasite load” value in test [4] (30 µM) is “did not significantly reduce the parasite load”. In test [4] (50 µM), the “fold reduction in parasite load compared to untreated cultures” value is approximately 12 fold and the parasite resurgence entry is given as “did not prevent parasite resurgence”. Moreover, in test [5], the “xΣFICI (average of the sums of fractional inhibitory concentration index)” value is recorded as 0.88 and the “interaction with Bz” value is given as “additive effect”.
Turning to `COc1ccc(-n2cc(-c3ccccc3)nn2)cc1` [Triazole 1d, 1-(4-Methoxyphenyl)-4-phenyl-1H-1,2,3-triazole], in test [1], the “Trypomastigotes SI” value is given as more than 2380 and the “increase of activity compared with 1g (times)” value is reported as 11 times. Besides, the IC90 in test [1] (setting [6]) is 2.9 ± 0.16 µM. Also, in test [1] (setting [7]), the IC50 came out at 0.21 ± 0.03 µM. The IC50 in test [1] (setting [8]) was 0.214 µM. Moreover, in test [2], the “Intracellular Amastigotes SI” value was more than 152. Also, in test [2] (Trypanosoma cruzi), the IC50 was 3.27 ± 0.9 µM and the IC90 is more than 100 µM. Further, the “parasite load … (luminescence)” value in test [3] is “significantly inhibited the viability of the parasites; also recorded: significantly reduce the parasite load”. For the same compound, in test [4] (100 µM), the “fold reduction in parasite load compared to untreated cultures” value is “approximately 10 fold” and the parasite resurgence result is “did not prevent parasite resurgence”. Moreover, in test [5], the “xΣFICI (average of the sums of fractional inhibitory concentration index)” value is 0.93 and the “interaction with Bz” value was “additive effect”.
As to `c1ccc(-c2cn(-c3ccccc3)nn2)cc1` [Triazole 1g, 1-(4-Diphenyl)-1H-1,2,3-triazole], the “Trypomastigotes SI” value in test [1] is recorded as more than 219. Besides, the IC90 in test [1] (setting [6]) and in test [2] (Trypanosoma cruzi) was more than 100 µM each time. Also, the IC50 in test [1] (setting [7]) was 2.28 ± 0.34 µM; in test [1] (setting [8]), 2.29 µM; in test [2] (Trypanosoma cruzi) it was 6.2 ± 1.06 µM. In addition, in test [2], the “Intracellular Amastigotes SI” value is reported as more than 80.6. For the same compound, the “parasite load … (luminescence)” value in test [3] is reported as “did not effectively decrease the total number of viable intracellular parasites”. In test [4] (100 µM), the “effect on parasite load / infection progression” value was “did not significantly reduce the parasite load”. In test [5], the “xΣFICI (average of the sums of fractional inhibitory concentration index)” value is on record as 0.90. The “interaction with Bz” value in test [5] was “additive effect”.

For the origin of these results see paper PMC10525445, “Antitrypanosomal Activity of 1,2,3-Triazole-Based Hybrids Evaluated Using In Vitro Preclinical Translational Models” (Biology, 2023).
